Experimental data as given in US20060276464A1, “Diarylsulfone sulfonamides and use thereof” (Wyeth, priority 2005, published 2006).
Several values for one entry are separate records, joined by “and”; a condition that tells them apart may be missing. Equal values may be shown once. Where a name gives a salt, the structure may show the parent alone. Read-outs that look alike come from different tables or passages of the source.

What was measured:
[1] = target: T1, SFRP-1 (Homo sapiens, UniProt Q8N474); assay: Cell-based assay for in vitro measurement of SFRP-1/SARP2 antagonist activity (U2OS cells co-transfected with 16x TCF-tk-Luciferase reporter, Wnt and hSFRP-1); conditions: for fold induction at 15 µM / fold induction at 10 µM: U2OS; for fold induction at 10 µM: read-out: Fold Induction with SFRP-1, U2OS cells, single dose 10 μM, luciferase reporter, fold induction over SFRP-1 control;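 on all read-outs here: U2OS cells co-transfected with a TCF-tk luciferase reporter, a Wnt vector, hSFRP-1 or empty vector and CMV-βgal, luciferase luminescence read in cell lysates alongside βgal activity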
T1 sequence (Q8N474 32-314): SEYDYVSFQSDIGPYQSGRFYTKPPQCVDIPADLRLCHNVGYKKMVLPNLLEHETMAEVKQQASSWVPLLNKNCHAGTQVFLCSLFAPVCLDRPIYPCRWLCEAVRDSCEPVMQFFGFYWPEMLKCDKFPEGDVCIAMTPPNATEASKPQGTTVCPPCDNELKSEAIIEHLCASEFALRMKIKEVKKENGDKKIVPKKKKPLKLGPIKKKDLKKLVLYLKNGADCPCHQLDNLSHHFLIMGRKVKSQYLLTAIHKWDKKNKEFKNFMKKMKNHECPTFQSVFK

[2] = target: T1, SFRP-1; assay: Fluorescence polarization binding assay (competitive displacement of a probe compound from SFRP-1); conditions: fluorescence anisotropy, 45 nM SFRP-1, 20 nM probe;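 further: test compound competes with a fluorescent probe held by SFRP-1, seen as a drop in probe anisotropy after incubation in darkness, with anisotropy as function of rising compound dose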
[3] = read-out: Fold Induction with SFRP-1, Conc 15 μM, single dose, luciferase reporter, fold induction over SFRP-1 control, cells with SFRP-1
[4] = read-out: Fold Induction without SFRP-1, Conc 15 μM, single dose, luciferase reporter, cells without SFRP-1 (specificity control)
[5] = read-out: Fold Induction with SFRP-1, Conc 15 μM, with SFRP-1, fold induction over SFRP-1 control, single dose
[6] = read-out: Fold Induction without SFRP-1, Conc 15 μM, without SFRP-1, single dose

Structure (SMILES) | IC50 [2] | EC50 [1] [nM] | fold induction at 10 µM [1] | other results
CC(C)c1ccc(S(=O)(=O)c2ccc(N3CCN(C(=O)OC(C)(C)C)CC3)cc2)cc1S(=O)(=O)NC1CCOCC1 [Example 625, tert-butyl 4-[4-({4-isopropyl-3-[(tetrahydro-2H-pyran-4-ylamino)sulfonyl]phenyl}sulfonyl)phenyl]piperazine-1-carboxylate] | 3000 nM | – | – | fold induction at 15 µM [1, 3]: 2.2; fold induction at 15 µM [1, 4]: 1.1
CC(C)c1ccc(S(=O)(=O)c2ccc(N3CCNCC3)cc2)cc1S(=O)(=O)NC1CCOCC1 [Example 628, 2-isopropyl-5-[(4-piperazin-1-ylphenyl)sulfonyl]-N-(tetrahydro-2H-pyran-4-yl)benzenesulfonamide] | 3000 nM | – | – | fold induction at 15 µM [1, 3]: 3.2; fold induction at 15 µM [1, 4]: 1.1
CC(C)c1ccc(S(=O)(=O)c2ccccc2)cc1S(=O)(=O)NC1CCN(C(=O)OC(C)(C)C)CC1 [Example 912, tert-butyl 4-({[2-isopropyl-5-(phenylsulfonyl)phenyl]sulfonyl}amino)piperidine-1-carboxylate] | 2100 nM | 1010 | 2.4 | –
O=C(O)C1CCCC(NS(=O)(=O)c2cc(S(=O)(=O)c3ccccc3)ccc2C(F)(F)F)C1 (stereo not drawn) [Example 967, 3-({[5-(phenylsulfonyl)-2-(trifluoromethyl)phenyl]sulfonyl}amino)cyclohexanecarboxylic acid] | 2500 nM | – | 2.1 | –
CNCCNS(=O)(=O)c1cc(S(=O)(=O)c2ccccc2)ccc1C(F)(F)F [Example 799, N-[2-(Methylamino)ethyl]-5-(phenylsulfonyl)-2-(trifluoromethyl)benzenesulfonamide hydrochloride] | 8000 nM | – | 2.2 | –
CNc1ccc(S(=O)(=O)c2ccc(C)c(S(=O)(=O)NCCCn3ccnc3)c2)cc1 [Example 310, N-[3-(1H-imidazol-1-yl)propyl]-2-methyl-5-{[4-(methylamino)phenyl]sulfonyl}benzenesulfonamide] | 400 nM | – | – | fold induction at 15 µM [1, 5]: 2.9; fold induction at 15 µM [1, 6]: 1.1
CC(C)c1ccc([S@+]([O-])c2ccccc2)cc1S(=O)(=O)NCCc1ccccn1 [Example 590, 2-isopropyl-5-[(R)-phenylsulfinyl]-N-(2-pyridin-2-ylethyl)benzenesulfonamide] | 2000 nM and 2500 nM | – | – | fold induction at 15 µM [1, 3]: 2.9; fold induction at 15 µM [1, 4]: 1
COc1ccc(C(=O)N2CCC(NS(=O)(=O)c3cc(S(=O)(=O)c4ccccc4)ccc3C(F)(F)F)CC2)c(OC)c1 [Example 708, N-[1-(2,4-dimethoxybenzoyl)piperidin-4-yl]-5-(phenylsulfonyl)-2-(trifluoromethyl)benzenesulfonamide] | 300 nM | 1170 | 3.7 | –
CN(CCNS(=O)(=O)c1cc(S(=O)(=O)c2ccccc2)ccc1C(F)(F)F)CCC(=O)OC(C)(C)C [Example 961, tert-butyl N-methyl-N-[2-({[5-(phenylsulfonyl)-2-(trifluoromethyl)phenyl]sulfonyl}amino)ethyl]-[…]-alaninate] | 4000 nM | 2550 | 2.8 | –
CN(CCNS(=O)(=O)c1cc(S(=O)(=O)c2ccccc2)ccc1C(F)(F)F)C(=O)c1ccccc1OC(F)(F)F [Example 839, N-Methyl-N-[2-({[5-(phenylsulfonyl)-2-(trifluoromethyl)phenyl]sulfonyl}amino)ethyl]-2-(trifluoromethoxy)benzamide] | 300 nM | 2380 | 3.5 | –
CC(C)c1ccc(S(=O)(=O)c2ccc(F)cc2)cc1S(=O)(=O)NC1CCN(C(=S)Nc2cccnc2)CC1 [Example 701, 4-[({5-[(4-fluorophenyl)sulfonyl]-2-isopropylphenyl}sulfonyl)amino]-N-pyridin-3-ylpiperidine-1-carbothioamide] | 700 nM | 698 | 3 | –
CCc1ccc(S(=O)(=O)c2ccccc2)cc1S(=O)(=O)NCCCN(C)C [Example 228, N-[3-(dimethylamino)propyl]-2-ethyl-5-(phenylsulfonyl)benzenesulfonamide] | 8000 nM and 15000 nM | – | – | fold induction at 15 µM [1, 5]: 3.3; fold induction at 15 µM [1, 6]: 1.2
O=C(O)c1ccc2c(c1)CC(NS(=O)(=O)c1cc(S(=O)(=O)c3ccccc3)ccc1C(F)(F)F)C2 (stereo not drawn) [Example 1082, 2-({[5-(phenylsulfonyl)-2-(trifluoromethyl)phenyl]sulfonyl}amino)indane-5-carboxylic acid] | 16 nM | 289 | – | –
Cc1ccc(S(=O)(=O)c2ccc(F)cc2)cc1S(=O)(=O)NC1C[C@@H](C)O[C@@H](C)C1 (stereo partly drawn) [Example 841, N-[(2R*,4S*,6S*)-2,6-dimethyltetrahydro-2H-pyran-4-yl]-5-[(4-fluorophenyl)sulfonyl]-2-methylbenzenesulfonamide] | 18000 nM | – | – | Fold Induction with SFRP-1 ([1]; U2OS cells, single dose 10 μM, luciferase reporter, fold induction over SFRP-1 control): 1.6
CC(C)c1ccc(S(=O)(=O)c2ccc(F)cc2)cc1S(=O)(=O)NC1CCN(S(=O)(=O)c2cccc3c(N(C)C)cccc23)CC1 [Example 518, N-(1-{[5-(dimethylamino)-1-naphthyl]sulfonyl}piperidin-4-yl)-5-[(4-fluorophenyl)sulfonyl]-2-isopropylbenzenesulfonamide] | 500 nM | – | – | fold induction at 15 µM [1, 3]: 3; fold induction at 15 µM [1, 4]: 1.2
CCOC(=O)NC(=S)N1CCC(NS(=O)(=O)c2cc(S(=O)(=O)c3ccc(F)cc3)ccc2C(C)C)CC1 [Example 693, ethyl({4-[({5-[(4-fluorophenyl)sulfonyl]-2-isopropylphenyl}sulfonyl)amino]piperidin-1-yl}carbonothioyl)carbamate] | 400 nM | 1080 | 3.5 | –
Cc1c(Cl)cccc1S(=O)(=O)c1ccc(C(C)C)c(S(=O)(=O)NC2CCOCC2)c1 [Example 542, 5-[(3-chloro-2-methylphenyl)sulfonyl]-2-isopropyl-N-(tetrahydro-2H-pyran-4-yl)benzenesulfonamide] | 1400 nM | – | – | fold induction at 15 µM [1, 3]: 2.7; fold induction at 15 µM [1, 4]: 1.1
CN(CCNS(=O)(=O)c1cc(S(=O)(=O)c2ccccc2)ccc1C(F)(F)F)C(=O)NCC(=O)O [Example 888, N-({methyl[2-({[5-(phenylsulfonyl)-2-(trifluoromethyl)phenyl]sulfonyl}amino)ethyl]amino}carbonyl)glycine] | 900 nM | 1770 | 2.1 | –
CN(CCNS(=O)(=O)c1cc(S(=O)(=O)c2ccccc2)ccc1C(F)(F)F)C(=O)c1cccnc1 [Example 849, N-Methyl-N-[2-({[5-(phenylsulfonyl)-2-(trifluoromethyl)phenyl]sulfonyl}amino)ethyl]nicotinamide] | 700 nM | 2100 | 3.9 | –
O=S(=O)(NC1c2ccccc2CC1O)c1cc(S(=O)(=O)c2ccccc2)ccc1C(F)(F)F (stereo not drawn) [Example 823, N-(2-hydroxy-2,3-dihydro-1H-inden-1-yl)-5-(phenylsulfonyl)-2-(trifluoromethyl)benzenesulfonamide] | 800 nM | 3000 | 2.6 | –
CS(=O)(=O)Nc1ccc(CCNS(=O)(=O)c2cc(S(=O)(=O)c3ccccc3)ccc2C(F)(F)F)cc1 [Example 987, N-(2-{4-[(methylsulfonyl)amino]phenyl}ethyl)-5-(phenylsulfonyl)-2-(trifluoromethyl)benzenesulfonamide] | 140 nM | 231 | – | –
CN(CCNS(=O)(=O)c1cc(S(=O)(=O)c2ccccc2)ccc1C(F)(F)F)C(=O)N[C@H]1CCCNC1 [Example 1023, N-[2-(methyl{[(3S)-piperidin-3-ylamino]carbonyl}amino)ethyl]-5-(phenylsulfonyl)-2-(trifluoromethyl)benzenesulfonamide] | 210 nM | 547 | – | –
Cc1ccc(S(=O)(=O)c2ccccc2)cc1S(=O)(=O)NC1CCN(C(=O)c2ccc3c(c2)OCO3)CC1 [Example 484, N-[1-(1,3-benzodioxol-5-ylcarbonyl)piperidin-4-yl]-2-methyl-5-(phenylsulfonyl)benzenesulfonamide] | 1500 nM | – | – | fold induction at 15 µM [1, 5]: 2.4; fold induction at 15 µM [1, 6]: 1.1
O=C(c1cc(F)cc(F)c1)N1CCC(NS(=O)(=O)c2cc(S(=O)(=O)c3ccccc3)ccc2C(F)(F)F)CC1 [Example 706, N-[1-(3,5-difluorobenzoyl)piperidin-4-yl]-5-(phenylsulfonyl)-2-(trifluoromethyl)benzenesulfonamide] | 180 nM | 503 | 3.7 | –
CCOc1ccccc1S(=O)(=O)c1ccc(C)c(S(=O)(=O)NCCc2ccccn2)c1 [Example 420, 5-[(2-ethoxyphenyl)sulfonyl]-2-methyl-N-(2-pyridin-2-ylethyl)benzenesulfonamide] | 8000 nM | – | – | fold induction at 15 µM [1, 5]: 2.4; fold induction at 15 µM [1, 6]: 1.3
CNc1ccc(S(=O)(=O)c2ccc(C)c(S(=O)(=O)NCCc3ccccn3)c2)cc1 [Example 356, 2-methyl-5-{[4-(methylamino)phenyl]sulfonyl)-N-(2-pyridin-2-ylethyl)benzenesulfonamide] | 1700 nM | – | – | fold induction at 15 µM [1, 5]: 2.5; fold induction at 15 µM [1, 6]: 1
